Data from PMC5513037, “Examining the influence of specificity ligands and ATP-competitive ligands on the overall effectiveness of bivalent kinase inhibitors” (Proteome Science, 2017).
pIC50: −log10 of the molar value.

How the values were obtained:
Test in all cases: KAM-matrix competition in K562 lysate;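 on 0.001 uM KAM: median log10 fold change of treatment over DMSO control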;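 on 0.01 uM KAM: median log10 fold change of treatment over DMSO control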;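 on 0.1 uM KAM: median log10 fold change of treatment over DMSO control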;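 on 1 uM KAM: median log10 fold change of treatment over DMSO control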;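 on 10 uM KAM: median log10 fold change of treatment over DMSO control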
Assay type in all cases: binding
INSR = molecular target: T1, INSR (Homo sapiens, UniProt P06213);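 on 0.001 uM KAM: median log10 fold change of treatment over DMSO control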;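 on 0.01 uM KAM: median log10 fold change of treatment over DMSO control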;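 on 0.1 uM KAM: median log10 fold change of treatment over DMSO control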;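 on 1 uM KAM: median log10 fold change of treatment over DMSO control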;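 on 10 uM KAM: median log10 fold change of treatment over DMSO control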
T1 construct: endogenous in cells; host or cells: K562
Protocol: (§1) Supplement 12953_2017_125_MOESM1_ESM.zip/MS_Supp Info.xlsx, sheet "KAM" | column: 10 uM KAM; 1 uM KAM; 0.1 uM KAM; 0.01 uM KAM; 0.001 uM KAM; RB50

PTK2 = molecular target: T2, PTK2 (Homo sapiens, UniProt Q05397)
T2 construct: endogenous in cells; host or cells: K562
Protocol: as §1

BLVRA = molecular target: T3, BLVRA (Homo sapiens, UniProt P53004);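 on 0.001 uM KAM: median log10 fold change of treatment over DMSO control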;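 on 0.01 uM KAM: median log10 fold change of treatment over DMSO control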;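 on 0.1 uM KAM: median log10 fold change of treatment over DMSO control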;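 on 1 uM KAM: median log10 fold change of treatment over DMSO control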;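 on 10 uM KAM: median log10 fold change of treatment over DMSO control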
T3 construct: endogenous in cells; host or cells: K562
T3 sequence (P53004 3-296): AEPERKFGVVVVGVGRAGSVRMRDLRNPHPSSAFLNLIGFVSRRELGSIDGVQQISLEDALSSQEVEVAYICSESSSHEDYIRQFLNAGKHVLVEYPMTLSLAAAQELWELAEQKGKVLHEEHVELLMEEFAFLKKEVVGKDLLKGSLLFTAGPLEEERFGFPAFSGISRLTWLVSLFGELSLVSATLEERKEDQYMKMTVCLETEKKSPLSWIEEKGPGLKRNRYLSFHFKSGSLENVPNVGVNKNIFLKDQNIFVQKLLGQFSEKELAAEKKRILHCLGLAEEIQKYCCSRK
Protocol: as §1

MASTL = molecular target: T4, MASTL (Homo sapiens, UniProt Q96GX5)
T4 construct: endogenous in cells; host or cells: K562 cell lysate
T4 sequence (Q96GX5 1-879): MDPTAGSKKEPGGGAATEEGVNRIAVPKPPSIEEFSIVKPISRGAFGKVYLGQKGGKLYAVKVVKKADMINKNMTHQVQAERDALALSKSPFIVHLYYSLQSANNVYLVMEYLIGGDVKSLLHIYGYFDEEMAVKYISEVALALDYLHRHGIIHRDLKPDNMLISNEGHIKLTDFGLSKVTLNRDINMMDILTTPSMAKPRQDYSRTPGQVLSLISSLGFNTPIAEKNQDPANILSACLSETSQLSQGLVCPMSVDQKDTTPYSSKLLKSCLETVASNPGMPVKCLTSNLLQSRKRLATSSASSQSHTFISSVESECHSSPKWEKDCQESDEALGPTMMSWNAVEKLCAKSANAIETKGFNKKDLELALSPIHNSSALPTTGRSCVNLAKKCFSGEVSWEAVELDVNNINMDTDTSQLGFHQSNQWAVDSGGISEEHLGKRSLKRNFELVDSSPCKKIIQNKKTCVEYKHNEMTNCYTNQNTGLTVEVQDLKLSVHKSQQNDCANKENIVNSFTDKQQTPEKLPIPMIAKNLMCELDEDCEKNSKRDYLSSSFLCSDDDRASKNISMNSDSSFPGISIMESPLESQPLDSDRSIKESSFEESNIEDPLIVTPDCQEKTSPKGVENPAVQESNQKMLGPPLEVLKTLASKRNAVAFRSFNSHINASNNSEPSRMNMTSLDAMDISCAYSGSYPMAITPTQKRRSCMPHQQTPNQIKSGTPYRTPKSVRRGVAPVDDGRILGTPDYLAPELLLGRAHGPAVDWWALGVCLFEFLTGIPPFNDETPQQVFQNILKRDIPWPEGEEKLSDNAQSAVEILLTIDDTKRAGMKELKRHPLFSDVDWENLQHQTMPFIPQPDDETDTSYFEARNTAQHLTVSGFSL
Protocol: as §1

PKN1 = molecular target: T5, PKN1 (Homo sapiens, UniProt Q16512);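 on 0.001 uM KAM: median log10 fold change of treatment over DMSO control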;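 on 0.01 uM KAM: median log10 fold change of treatment over DMSO control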;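 on 0.1 uM KAM: median log10 fold change of treatment over DMSO control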;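 on 1 uM KAM: median log10 fold change of treatment over DMSO control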;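 on 10 uM KAM: median log10 fold change of treatment over DMSO control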
T5 construct: endogenous in cells; host or cells: K562
Protocol: as §1

ACVR1 = molecular target: T6, ACVR1 (Homo sapiens, UniProt Q04771)
T6 construct: endogenous in cells; host or cells: K562
T6 sequence (Q04771 21-509): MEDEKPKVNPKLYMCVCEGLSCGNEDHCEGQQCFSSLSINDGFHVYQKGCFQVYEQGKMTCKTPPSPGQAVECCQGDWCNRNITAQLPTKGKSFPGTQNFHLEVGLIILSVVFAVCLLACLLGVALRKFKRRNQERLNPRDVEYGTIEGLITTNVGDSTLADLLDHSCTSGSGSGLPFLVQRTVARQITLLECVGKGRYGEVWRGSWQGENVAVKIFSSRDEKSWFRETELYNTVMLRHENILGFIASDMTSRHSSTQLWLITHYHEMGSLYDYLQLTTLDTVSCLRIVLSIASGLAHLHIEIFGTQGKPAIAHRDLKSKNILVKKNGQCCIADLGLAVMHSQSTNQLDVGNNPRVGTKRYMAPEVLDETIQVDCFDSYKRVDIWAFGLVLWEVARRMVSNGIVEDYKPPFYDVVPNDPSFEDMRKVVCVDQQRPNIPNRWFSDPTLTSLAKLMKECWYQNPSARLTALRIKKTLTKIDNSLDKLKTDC
Protocol: as §1

YES1 = molecular target: T7, YES1 (Homo sapiens, UniProt P07947)
T7 construct: endogenous in cells; host or cells: K562
Protocol: as §1

[1] = KAM 0.001-10 uM, read-out: RB50 (the source's name)
[2] = read-out: RB50 (the source's name)

T2 sequence (Q05397 whole entry): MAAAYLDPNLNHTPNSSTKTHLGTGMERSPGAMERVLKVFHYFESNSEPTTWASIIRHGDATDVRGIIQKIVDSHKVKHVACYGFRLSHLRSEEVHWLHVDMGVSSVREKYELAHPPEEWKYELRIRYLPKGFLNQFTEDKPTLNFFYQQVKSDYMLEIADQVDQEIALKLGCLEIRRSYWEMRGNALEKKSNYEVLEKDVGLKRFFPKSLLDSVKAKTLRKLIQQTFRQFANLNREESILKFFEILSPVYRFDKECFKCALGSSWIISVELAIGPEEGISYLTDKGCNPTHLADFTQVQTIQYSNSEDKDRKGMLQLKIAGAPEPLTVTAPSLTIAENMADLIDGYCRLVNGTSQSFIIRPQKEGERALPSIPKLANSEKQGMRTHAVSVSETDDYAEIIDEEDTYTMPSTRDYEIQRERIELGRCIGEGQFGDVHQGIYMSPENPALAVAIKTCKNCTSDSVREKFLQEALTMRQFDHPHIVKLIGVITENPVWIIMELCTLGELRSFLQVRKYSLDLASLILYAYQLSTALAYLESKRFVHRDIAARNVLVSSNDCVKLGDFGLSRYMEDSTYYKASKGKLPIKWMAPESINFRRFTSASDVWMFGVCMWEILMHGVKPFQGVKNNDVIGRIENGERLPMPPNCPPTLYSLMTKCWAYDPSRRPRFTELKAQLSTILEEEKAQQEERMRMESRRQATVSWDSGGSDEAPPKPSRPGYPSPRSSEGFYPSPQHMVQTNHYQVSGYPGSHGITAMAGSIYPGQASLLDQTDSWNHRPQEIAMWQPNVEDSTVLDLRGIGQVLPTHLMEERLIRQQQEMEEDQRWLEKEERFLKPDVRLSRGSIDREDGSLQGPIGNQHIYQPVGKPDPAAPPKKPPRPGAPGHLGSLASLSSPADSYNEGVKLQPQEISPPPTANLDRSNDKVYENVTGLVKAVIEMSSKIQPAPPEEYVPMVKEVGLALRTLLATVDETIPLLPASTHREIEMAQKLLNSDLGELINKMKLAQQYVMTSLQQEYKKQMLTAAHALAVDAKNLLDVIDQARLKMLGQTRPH
T1 sequence (P06213 28-1382): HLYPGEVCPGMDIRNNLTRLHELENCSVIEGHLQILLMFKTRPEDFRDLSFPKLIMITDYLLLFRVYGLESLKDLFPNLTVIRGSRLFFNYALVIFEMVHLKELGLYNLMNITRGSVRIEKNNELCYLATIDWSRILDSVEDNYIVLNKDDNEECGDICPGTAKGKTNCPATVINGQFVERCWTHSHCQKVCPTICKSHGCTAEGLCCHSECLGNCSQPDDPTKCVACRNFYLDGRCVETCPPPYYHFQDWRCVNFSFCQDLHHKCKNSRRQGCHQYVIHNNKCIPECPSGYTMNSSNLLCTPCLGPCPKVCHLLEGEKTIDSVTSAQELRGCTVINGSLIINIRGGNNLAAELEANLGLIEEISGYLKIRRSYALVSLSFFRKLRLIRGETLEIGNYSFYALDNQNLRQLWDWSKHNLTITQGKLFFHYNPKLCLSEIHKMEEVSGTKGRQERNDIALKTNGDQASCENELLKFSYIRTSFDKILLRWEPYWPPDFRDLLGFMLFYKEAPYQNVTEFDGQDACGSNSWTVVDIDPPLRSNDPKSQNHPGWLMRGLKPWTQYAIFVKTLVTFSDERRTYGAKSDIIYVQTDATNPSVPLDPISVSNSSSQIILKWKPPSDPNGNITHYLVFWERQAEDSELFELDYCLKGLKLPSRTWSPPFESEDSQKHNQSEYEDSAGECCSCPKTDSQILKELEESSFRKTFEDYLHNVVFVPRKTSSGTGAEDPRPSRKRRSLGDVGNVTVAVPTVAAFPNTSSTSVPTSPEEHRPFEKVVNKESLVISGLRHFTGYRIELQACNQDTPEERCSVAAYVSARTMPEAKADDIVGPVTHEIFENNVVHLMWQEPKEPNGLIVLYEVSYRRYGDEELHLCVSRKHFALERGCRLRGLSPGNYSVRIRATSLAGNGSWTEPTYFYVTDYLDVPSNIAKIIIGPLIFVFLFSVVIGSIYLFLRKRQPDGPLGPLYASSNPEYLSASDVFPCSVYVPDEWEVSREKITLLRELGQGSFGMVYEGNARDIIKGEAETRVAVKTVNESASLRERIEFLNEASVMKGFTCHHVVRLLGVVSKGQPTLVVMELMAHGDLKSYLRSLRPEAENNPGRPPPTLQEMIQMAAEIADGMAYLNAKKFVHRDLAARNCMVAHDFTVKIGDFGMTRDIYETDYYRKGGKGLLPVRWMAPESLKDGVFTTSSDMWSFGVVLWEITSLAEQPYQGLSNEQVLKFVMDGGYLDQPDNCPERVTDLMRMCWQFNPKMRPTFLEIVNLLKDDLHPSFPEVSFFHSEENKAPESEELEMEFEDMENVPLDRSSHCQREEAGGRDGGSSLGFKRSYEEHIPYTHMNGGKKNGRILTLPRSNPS
T7 sequence (P07947 whole entry): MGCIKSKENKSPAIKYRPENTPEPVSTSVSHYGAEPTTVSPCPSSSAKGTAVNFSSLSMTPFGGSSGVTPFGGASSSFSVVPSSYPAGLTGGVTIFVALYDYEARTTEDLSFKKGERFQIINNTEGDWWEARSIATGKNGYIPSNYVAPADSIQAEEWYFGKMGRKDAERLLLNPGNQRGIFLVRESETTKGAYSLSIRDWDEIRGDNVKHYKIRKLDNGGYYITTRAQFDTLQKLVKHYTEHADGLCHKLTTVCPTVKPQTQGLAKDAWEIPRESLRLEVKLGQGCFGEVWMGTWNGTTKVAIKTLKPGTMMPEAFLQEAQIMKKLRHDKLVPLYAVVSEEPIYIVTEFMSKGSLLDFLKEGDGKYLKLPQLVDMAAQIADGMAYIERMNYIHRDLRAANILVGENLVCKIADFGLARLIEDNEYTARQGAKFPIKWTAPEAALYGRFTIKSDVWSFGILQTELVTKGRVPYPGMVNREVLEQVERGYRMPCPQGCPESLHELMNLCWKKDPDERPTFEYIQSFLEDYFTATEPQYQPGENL
T5 sequence (Q16512 whole entry): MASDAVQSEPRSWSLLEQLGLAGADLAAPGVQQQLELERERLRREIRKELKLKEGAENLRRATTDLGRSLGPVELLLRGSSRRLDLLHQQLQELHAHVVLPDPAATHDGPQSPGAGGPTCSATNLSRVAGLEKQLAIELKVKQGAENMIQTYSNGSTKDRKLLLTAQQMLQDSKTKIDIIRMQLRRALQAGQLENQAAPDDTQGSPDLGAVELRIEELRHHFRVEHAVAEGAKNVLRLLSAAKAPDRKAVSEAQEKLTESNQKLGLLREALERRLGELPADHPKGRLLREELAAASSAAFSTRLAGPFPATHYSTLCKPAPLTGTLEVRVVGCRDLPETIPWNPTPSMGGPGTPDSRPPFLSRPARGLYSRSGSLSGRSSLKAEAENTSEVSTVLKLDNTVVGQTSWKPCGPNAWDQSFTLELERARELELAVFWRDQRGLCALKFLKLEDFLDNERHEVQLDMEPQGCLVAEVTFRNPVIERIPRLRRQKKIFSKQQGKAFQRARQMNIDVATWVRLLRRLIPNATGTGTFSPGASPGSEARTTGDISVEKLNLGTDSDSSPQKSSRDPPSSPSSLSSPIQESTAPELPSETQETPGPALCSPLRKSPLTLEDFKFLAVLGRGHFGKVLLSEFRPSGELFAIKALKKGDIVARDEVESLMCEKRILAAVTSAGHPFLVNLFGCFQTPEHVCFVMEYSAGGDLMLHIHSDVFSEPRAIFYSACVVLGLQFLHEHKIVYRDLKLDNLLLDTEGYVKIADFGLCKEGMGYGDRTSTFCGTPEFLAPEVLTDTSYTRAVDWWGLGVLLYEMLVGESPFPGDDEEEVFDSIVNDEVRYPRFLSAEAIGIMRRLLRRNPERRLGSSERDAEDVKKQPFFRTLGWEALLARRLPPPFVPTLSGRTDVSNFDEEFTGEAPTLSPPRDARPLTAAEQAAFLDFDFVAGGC

How did the pIC50 (INSR; [1]) turn out when N#CCc1ccc(Nc2nc(NCCCN)cc(Nc3cc(C4CC4)[nH]n3)n2)cc1 [KAM] was run?
Its pIC50 is < 5.00.

What about the “0.001 uM KAM” value (INSR; relative to 0 uM KAM = 0) of the same compound?
The value was -0.0389.

What about the “0.01 uM KAM” value (INSR; relative to 0 uM KAM = 0) of the same compound?
The value was 0.002129.

What about the “0.1 uM KAM” value (INSR; relative to 0 uM KAM = 0) of the same compound?
Its value is -0.09696.

What about the “1 uM KAM” value (INSR; relative to 0 uM KAM = 0) of the same compound?
The value was -0.2508.

What about the “10 uM KAM” value (INSR; relative to 0 uM KAM = 0) of the same compound?
The value was -0.2556.

What about the “median Log10 fold change” value (PTK2; 0.001 uM KAM) of the same compound?
The value was 0.001005.

What about the “median Log10 fold change” value (PTK2; 0.01 uM KAM) of the same compound?
Its value is -0.00785.

And the “median Log10 fold change” value (PTK2; 0.1 uM KAM)?
The value was -0.1794.

And the “median Log10 fold change” value (PTK2; 1 uM KAM)?
Its value is -0.5062.

And the “median Log10 fold change” value (PTK2; 10 uM KAM)?
The value was -0.5675.

What about the pIC50 (PTK2; [2]) of the same compound?
Its pIC50 is 6.47.

And the pIC50 (BLVRA; [1])?
Its pIC50 is < 5.00.

What about the “0.001 uM KAM” value (BLVRA; relative to 0 uM KAM = 0) of the same compound?
The value was 0.01315.

And the “0.01 uM KAM” value (BLVRA; relative to 0 uM KAM = 0)?
The value was 0.09211.

What about the “0.1 uM KAM” value (BLVRA; relative to 0 uM KAM = 0) of the same compound?
The value was 0.1192.

What about the “1 uM KAM” value (BLVRA; relative to 0 uM KAM = 0) of the same compound?
The value was 0.1811.

What about the “10 uM KAM” value (BLVRA; relative to 0 uM KAM = 0) of the same compound?
Its value is 0.1365.

What about the “median Log10 fold change” value (MASTL; 0.001 uM KAM) of the same compound?
The value was 0.009734.

What about the “median Log10 fold change” value (MASTL; 0.01 uM KAM) of the same compound?
Its value is -0.004391.

And the “median Log10 fold change” value (MASTL; 0.1 uM KAM)?
The value was -0.2197.

And the “median Log10 fold change” value (MASTL; 1 uM KAM)?
The value was -0.3171.

And the “median Log10 fold change” value (MASTL; 10 uM KAM)?
The value was -0.3645.

What about the pIC50 (MASTL; [2]) of the same compound?
The pIC50 was 6.02.

What about the pIC50 (PKN1; [1]) of the same compound?
The pIC50 was < 5.00.

What about the “0.001 uM KAM” value (PKN1; relative to 0 uM KAM = 0) of the same compound?
Its value is -0.02702.

What about the “0.01 uM KAM” value (PKN1; relative to 0 uM KAM = 0) of the same compound?
Its value is -0.01686.

What about the “0.1 uM KAM” value (PKN1; relative to 0 uM KAM = 0) of the same compound?
Its value is -0.08252.

And the “1 uM KAM” value (PKN1; relative to 0 uM KAM = 0)?
Its value is -0.1762.

And the “10 uM KAM” value (PKN1; relative to 0 uM KAM = 0)?
Its value is -0.2257.

What about the “median Log10 fold change” value (ACVR1; 0.001 uM KAM) of the same compound?
The value was 0.003413.

And the “median Log10 fold change” value (ACVR1; 0.01 uM KAM)?
The value was -0.1656.

And the “median Log10 fold change” value (ACVR1; 0.1 uM KAM)?
The value was -0.6449.

What about the “median Log10 fold change” value (ACVR1; 1 uM KAM) of the same compound?
The value was -0.6498.

What about the “median Log10 fold change” value (ACVR1; 10 uM KAM) of the same compound?
Its value is -0.7414.

What about the pIC50 (ACVR1; [2]) of the same compound?
The pIC50 was 7.57.

And the “median Log10 fold change” value (YES1; 0.001 uM KAM)?
The value was 0.00764.

What about the “median Log10 fold change” value (YES1; 0.01 uM KAM) of the same compound?
Its value is 0.01465.

And the “median Log10 fold change” value (YES1; 0.1 uM KAM)?
The value was -0.1546.

And the “median Log10 fold change” value (YES1; 1 uM KAM)?
The value was -0.4462.

What about the “median Log10 fold change” value (YES1; 10 uM KAM) of the same compound?
The value was -0.6732.

What about the pIC50 (YES1; [2]) of the same compound?
The pIC50 was 6.34.
